In patent US20180193412A1, “Method of In Vivo Treatment” (Hexima Limited, priority 2015, published 2018):

Key:
A. flavus = experiment: Inhibition of growth of A. flavus, Example 2 antifungal assay; type: cell-based; settings: ½ strength PDB, 30° C., A595
Experimental: (§1) The inhibitory effects of the plant defensins on the growth of Candida albicans, Aspergillus fumigatus (obtained from the National Mycology Reference Centre, South Australia Pathology at the Women's and Children's Hospital, Adelaide, Australia), C. glabrata, C. tropicalis, A. flavus, A. niger, A. fumigants, Cryptococcus neoformans and C. gattii (obtained from Dee Carter, University of Sydney, New South Wales, Australia) are measured essentially as described by Broekaert et al. (1990) FEMS Microbiol Lett 69:55-59.
(§2) Spores of A. flavus. A. niger and A. fumigatus are isolated from sporulating fungus growing on ½ strength Sabouraud dextrose agar. Spores were removed from the plates by the addition of ½ strength potato dextrose broth (PDB). C. albicans, C. glabrata, C. tropicalis, C. neoformans and C. gattii cells are grown in Yeast Peptone Broth (YPD) for 16 h. Spore and cell concentrations are measured using a hemocytometer.
(§3) Antifungal assays are conducted in 96 well microtitre plates essentially as herein described. Wells are loaded with 20 μL of filter sterilized (0.22 μm syringe filter, Millipore) defensin (10× stock for each final concentration) or water and 80 μL of 5×10^4 spores/mL (A. flavus, A. niger, A. fumigatus), 5,000 cells/mL (C. albicans, C. glabrata, C. tropicalis) or 1×10^6 cells/mL (C. neoformans, C. gattii) in ½ strength PDB. The plates are incubated at 30° C. Fungal growth is assayed by measuring optical density at 595 nm (A595) using a microtitre plate reader (SpectraMax Pro M2; Molecular Devices. Growth is allowed to proceed until the optical density (OD) of the fungus in the absence of any test defensin reached an OD of 0.2. Each test is performed in duplicate.

C. glabrata = experiment: Inhibition of growth of C. glabrata, Example 2 antifungal assay; type: cell-based; settings: ½ strength PDB, 30° C., A595
Experimental: as §1, §2, §3

A. fumigatus = experiment: Inhibition of growth of Aspergillus fumigatus, Example 2 antifungal assay; type: cell-based; settings: ½ strength PDB, 30° C., A595
Experimental: as §1, §2, §3

C. tropicalis = experiment: Inhibition of growth of C. tropicalis, Example 2 antifungal assay; type: cell-based; settings: ½ strength PDB, 30° C., A595
Experimental: as §1, §2, §3

B. subtilis = experiment: Inhibition of the growth of Bacillus subtilis (OD595, 18 hours); type: cell-based; settings: for IC50: Mueller-Hinton Broth, 37° C., 18 hours, up to 20 μM, read-out: IC50 against B. subtilis; for Inhibition of growth of B. subtilis: at the concentrations tested (0.3125-20 μM)
Experimental: (§4) A single E. coli or B. subtilis colony was used to inoculate 5 ml of Luria-Bertani media and grown overnight at 37° C. The following day, the optical density of the culture was measured and the bacteria diluted to an optical density at 600 nm (OD600) of 0.01 in Mueller-Hinton Broth. Diluted E. coli or B. subtilis were added to 96-well plates with defensins at concentrations of 20 μM, 10 μM, 5 μM, 2.5 μM, 1.25 μM, 0.625 μM or 0.3125 μM. Plates were read at OD595 to obtain time zero data points. Plates were incubated at 37° C. for 18 hours before reading again at OD595 to assess the amount of bacterial growth.

E. coli = type: cell-based, Escherichia coli; settings: for IC50: Mueller-Hinton Broth, 37° C., 18 hours, up to 20 μM, read-out: IC50 against E. coli; for Inhibition of growth of E. coli: at the concentrations tested (0.3125-20 μM)
Experimental: as §4

M. fulvum = experiment: Inhibition of growth of Microsporum fulvum by plant defensins (microtitre A595 antifungal assay); type: cell-based; settings: for IC50 against M. fulvum: ½ strength PDB, 30° C., A595
Experimental: (§5) The inhibitory effects of the plant defensins on the growth of Trichophyton rubrum, T. interdigitale, Microsporum fulvum and C. albicans (all obtained from the National Mycology Reference Centre, South Australia Pathology at the Women's and Children's Hospital, Adelaide, Australia) are measured essentially as described by Broekaert et al. (1990) FEMS Microbiol Lett 69:55-59.
(§6) Spores of T. rubrum, T. interdigitale and M. fulvum are isolated from sporulating fungus growing on ½ strength Sabouraud dextrose agar. Spores were removed from the plates by the addition of ½ strength potato dextrose broth (PDB). C. albicans cells are grown in Yeast Peptone Broth (YPD) for 16 h. Spore and cell concentrations are measured using a hemocytometer.
as §3, with “Ξ m” for “μm”, “(T. rubrum, T. interdigitale, M. fulvum) or” for “(A. flavus, A. niger, A. fumigatus),”, “albicans)” for “albicans, C. glabrata, C. tropicalis) or 1×10^6 cells/mL (C. neoformans, C. gattii)”

A. niger = experiment: Inhibition of growth of A. niger, Example 2 antifungal assay; type: cell-based; settings: ½ strength PDB, 30° C., A595
Experimental: as §1, §2, §3

C. neoformans = experiment: Inhibition of growth of Cryptococcus neoformans, Example 2 antifungal assay; type: cell-based; settings: ½ strength PDB, 30° C., A595
Experimental: as §1, §2, §3

T. albicans = experiment: Inhibition of growth of C. albicans by plant defensins, Example 1 (microtitre A595 antifungal assay); type: cell-based; settings: for IC50 against T. albicans: Table 3, ½ strength PDB, 30° C., A595
Experimental: as §5, §6
as §3, with “Ξ m” for “μm”, “(T. rubrum, T. interdigitale, M. fulvum) or” for “(A. flavus, A. niger, A. fumigatus),”, “albicans)” for “albicans, C. glabrata, C. tropicalis) or 1×10^6 cells/mL (C. neoformans, C. gattii)”

C. albicans = experiment: Inhibition of growth of Candida albicans, Example 2 antifungal assay; type: cell-based; settings: Table 4; ½ strength PDB, 30° C., A595
Experimental: as §1, §2, §3

C. gattii = experiment: Inhibition of growth of C. gattii, Example 2 antifungal assay; type: cell-based; settings: ½ strength PDB, 30° C., A595
Experimental: as §1, §2, §3

[1] = test system: Trichophyton rubrum, T. interdigitale, Microsporum fulvum and C. albicans; experiment: Inhibition assays of Example 1, summary across the range of fungal pathogens; type: cell-based; settings: summary of Table 3, at the concentrations tested
Experimental: as §5, §6
as §3, with “Ξ m” for “μm”, “(T. rubrum, T. interdigitale, M. fulvum) or” for “(A. flavus, A. niger, A. fumigatus),”, “albicans)” for “albicans, C. glabrata, C. tropicalis) or 1×10^6 cells/mL (C. neoformans, C. gattii)”

T. rubrum = experiment: Inhibition of growth of Trichophyton rubrum by plant defensins (microtitre A595 antifungal assay); type: cell-based; settings: ½ strength PDB, 30° C.
Experimental: as §5, §6
as §3, with “Ξ m” for “μm”, “(T. rubrum, T. interdigitale, M. fulvum) or” for “(A. flavus, A. niger, A. fumigatus),”, “albicans)” for “albicans, C. glabrata, C. tropicalis) or 1×10^6 cells/mL (C. neoformans, C. gattii)”

Substance | IC50 against A. flavus (A. flavus) [µg/mL] | IC50 against C. glabrata (C. glabrata) [µg/mL] | IC50 against A. fumigatus (A. fumigatus) [µg/mL] | IC50 against C. tropicalis (C. tropicalis) [µg/mL] | IC50 (B. subtilis) [µM] | Inhibition of growth of B. subtilis (B. subtilis) | IC50 (E. coli) [µM] | Inhibition of growth of E. coli (E. coli) | IC50 against M. fulvum (M. fulvum) [µg/mL] | IC50 against A. niger (A. niger) [µg/mL] | IC50 against C. neoformans (C. neoformans) [µg/mL] | IC50 against T. albicans (T. albicans) [µg/mL] | IC50 against C. albicans (C. albicans) [µg/mL] | IC50 against C. gattii (C. gattii) [µg/mL] | Inhibition of M. fulvum (M. fulvum; summary of Table 3) | Inhibition of C. albicans (T. albicans; summary of Table 3) | Activity across the range of fungal pathogens [1] | IC50 against T. rubrum (T. rubrum) [µg/mL]
HXL003: Class I plant defensin from Triticum aestivum (ARDCTSQSHKFVGLCLSDRNCASVCLTEYFTGGKCDHRRCVCTKGC; HXL003 Triticum aestivum) | >100 | >100 | >100 | 8 | > 20 | did not inhibit the growth | > 20 | did not inhibit the growth | >100 | >100 | 3 | >100 | >100 | 20 | – | – | – | –
HXL002: Class I plant defensin from Triticum aestivum (RDCLSQSHKFKGACLSSSNCAAVCRTENFPDGECHTHNFARKCFCKRAC; HXL002 Triticum aestivum) | – | 15 | 25 | 2 | > 20 | did not inhibit the growth | > 20 | did not inhibit the growth | 50 | 20 | 2.5 | 35 | 35 | 18 | very poor inhibitors | very poor inhibitors | – | –
HXL001: Class I plant defensin from Zea mays (RHCLSQSHRFKGLCMSSNNCANVCQTENFPGGECKAEGATRKCFCKKIC; HXL001 Zea mays) | >100 | 32 | >100 | 6 | > 20 | did not inhibit the growth | > 20 | did not inhibit the growth | >100 | >100 | 10 | 35 | 35 | 40 | – | – | did not display any activity | >100
HXL009: Class I plant defensin from Zea mays (TVCMRHNNFYHGPCMSNKDCANSCVQHNLGVGGYCRGKIPFNKECMCTFEC; HXL009 Zea mays) | >100 | >100 | >100 | 12 | > 20 | – | > 20 | – | >100 | >100 | 8 | >100 | >100 | 38 | – | – | did not display any activity | –
